Laboratory results taken from US20080176906A1, “Substituted Pyrrole Derivative” (Takeda Pharmaceutical Company Limited, priority 2004, published 2008).
Where a chain is given by its changes, count along the chain named.

What was measured:
[1] = target: T1, wild-type androgen receptor (AR) (Homo sapiens, UniProt P10275); test: AR binding inhibitory test (wild type); conditions: 1 μM compound, 3 nM miboleron, 4° C. for 3 hours, dextran/charcoal B/F separation; read-out: Inhibitory rate (%) at 1 μM, Wild type
T1 sequence (P10275 1-920): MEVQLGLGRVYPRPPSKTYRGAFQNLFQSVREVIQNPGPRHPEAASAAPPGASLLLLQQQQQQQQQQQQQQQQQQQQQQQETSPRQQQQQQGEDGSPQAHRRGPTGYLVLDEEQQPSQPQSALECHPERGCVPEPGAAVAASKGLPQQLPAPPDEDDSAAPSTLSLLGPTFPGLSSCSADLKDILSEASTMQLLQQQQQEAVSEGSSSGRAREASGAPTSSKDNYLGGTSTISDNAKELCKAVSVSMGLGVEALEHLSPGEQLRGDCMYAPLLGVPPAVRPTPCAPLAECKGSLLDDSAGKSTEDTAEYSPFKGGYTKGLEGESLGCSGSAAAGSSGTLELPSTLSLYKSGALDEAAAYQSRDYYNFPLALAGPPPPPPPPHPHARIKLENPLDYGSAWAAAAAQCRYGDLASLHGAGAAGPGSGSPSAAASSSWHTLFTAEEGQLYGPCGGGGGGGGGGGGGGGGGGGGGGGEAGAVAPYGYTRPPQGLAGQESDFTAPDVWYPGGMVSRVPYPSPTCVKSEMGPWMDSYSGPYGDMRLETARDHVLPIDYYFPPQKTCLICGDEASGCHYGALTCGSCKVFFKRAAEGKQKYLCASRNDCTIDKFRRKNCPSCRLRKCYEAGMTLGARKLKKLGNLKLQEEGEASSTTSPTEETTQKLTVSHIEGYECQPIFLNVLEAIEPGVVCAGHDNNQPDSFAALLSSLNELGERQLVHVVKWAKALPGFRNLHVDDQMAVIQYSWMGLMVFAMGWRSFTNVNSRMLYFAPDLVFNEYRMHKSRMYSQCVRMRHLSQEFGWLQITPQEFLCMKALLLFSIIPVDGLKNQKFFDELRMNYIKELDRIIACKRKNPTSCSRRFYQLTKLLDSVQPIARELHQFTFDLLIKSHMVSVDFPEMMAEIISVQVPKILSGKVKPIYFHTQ
Experimental: 3 nM miboleron and 1 μM of a compound was added to a solution containing a wild-type androgen receptor (AR) or an androgen receptor (AR) having a LNCaP type mutation, this was incubated at 4° C. for 3 hours, and B(Bound)/F(Free) separation was performed by a dextran/charcoal method. A label count of B was measured, and an inhibition rate of the compound was calculated.

[2] = test system: human prostate cancer cell LNCaP-FGC; test: Prostate specific antigen (PSA) production inhibition in prostate cancer cell; format: cell-based; conditions: 72 h, 1 μM compound, testosterone 1 ng/mL, three days, PSA in culture supernatant by ELISA, testosterone non-added group 100%, testosterone-added group 0%, read-out: PSA production Inhibitory rate (%) at 1 μM
Experimental: A human prostate cancer cell LNCaP-FGC was inoculated on a 96-well plate at 5000 cells/100 μL/well and, on the next day, testosterone having the final concentration of 1 ng/mL and 1 μM of a compound were added. Three days after addition, the PSA concentration in the culture supernatant was measured by ELISA, and a PSA production inhibition rate was calculated, letting the rate of a testosterone non-added group to be 100%, and letting the rate of a testosterone-added group to be 0%.

mutated AR (W741C) = target: T2, mutated AR (W741C) (Homo sapiens, UniProt P10275, W742C); test: AR transcription inhibition test (luciferase reporter in Cos-7); format: cell-based; conditions: 0.1 μM compound, DHT 0.04 μM, 24 hours, luciferase activity, relative to a control
T2 construct: expressed in transfected cells; host or cells: Cos-7
T2 sequence (P10275 1-920 W742C): T1 sequence (P10275 1-920) with W742C
Experimental: 5,000,000 Cells of Cos-7 was inoculated on a flask, and cultured in a culturing solution (DMEM+10% Dextran Charcoal (DCC)-Fetal Bovine Serum (FBS)+2 mM glutamine) for 24 hours, and a vector DNA in which mutated AR (W741C) had been inserted, and a vector DNA in which a luciferase gene had been connected downstream of an androgen-responsive promoter were transfected by a liposome method. After two hours, the medium was exchanged, the cells were cultured for 3 hours, DHT (dihydrotestosterone) having the final concentration of 0.04 μM and an assessment compound having the final concentration of 0.1 μM were added, and the cells were cultured for 24 hours, and luciferase activity was measured to investigate AR transcription inhibition activity of the assessment compound.

mouse prostate = test: Test of reduction in weight of mouse prostate; format: in vivo; conditions: orally 50 mg/kg/day for 7 days, 8 week old male mouse; drug non-addition 0%, castration 100%
Description: A rate of reduction in a prostate weight is shown in Table 5, letting at drug non-addition to be 0%, and letting at castration to be 100%.

inhibition at 1 µM [1]: 94% | AR transcription Inhibitory rate (%) at 0.1 μM (mutated AR (W741C)): 49%
SMILES: Cc1c(C#N)c(-c2ccc(C#N)cc2)c(C)n1Cc1cnc(Cl)c(CO)c1 [Compound 1, 1-{[6-Chloro-5-(hydroxymethyl)pyridin-3-yl]methyl}-4-(4-cyanophenyl)-2,5-dimethyl-1H-pyrrole-3-carbonitrile]
inhibition at 1 µM [2]: 99% | Reduction rate (%) of prostate weight (mouse prostate): 74%
